# Laboratory results published in publication PMC9841531, “Indole Derivatives as New Structural Class of Potent and Antiproliferative Inhibitors of Monocarboxylate Transporter 1 (MCT1; SLC16A1)” (Journal of Medicinal Chemistry, 2022).
# Columns and labels:
# A-549 cells = assay: 3-BP toxicity against A-549 cells (MTT); assay type: cell-based
# Procedure: (§1) The inhibitory activity of indole derivatives against MCT1 was determined by applying a functional 3-bromopyruvate (3-BP) cell viability assay, as described in the literature[20],[39] with minor modifications. In short, MCT1-expressing A-549 cells[14],[15] were exposed to the MCT1 substrate 3-BP, which becomes influxed by MCT1. 3-BP is toxic, leading to decreased cell viability. Functional inhibition of MCT1 results in reduced intracellular 3-BP levels and, thus, enhanced cell viability compared to no inhibition. […] Table 1 provides the half-maximal inhibition concentration (IC50) values of compounds 17–32.
# (§2) A functional 3-BP cytotoxicity assay was conducted as described in the literature[20],[39] with minor modifications. Dilution series of compounds 17–32 between 1 nM and 1 μM were prepared in DPBS (Cell Clone, Genetix Biotech Asia, New Delhi India), and 10 μL of each concentration was pipetted into a colorless flat-bottom 96-well microplate (SPL Life Sciences, Gyeonggi-do, Republic of Korea). One hundred and eighty microliters of a cell suspension (5000 cells/well) of A-549 cells was added, and subsequently, 10 μL of 3-BP was added at a concentration of 1 mM (final concentration per well: 50 μM). The plate was kept for 72 h at 37 °C under a 5% CO2-humidified atmosphere. Cell viability was determined as described before[43] by adding 20 μL of a 5 mg/mL solution of MTT to each well and further incubation for 1 h. Eventually, the supernatant was removed and 100 μL of DMSO was added to each well. The absorbance was spectrophotometrically determined at 570 nm using a SpectraMax iD3 multi-mode microplate reader (Molecular Devices, San Jose, CA) with a background correction (690 nm). The determined absorbance values were correlated to the logarithmic concentrations of compounds 17–32, and IC50 values were calculated applying nonlinear regression using GraphPad Prism (version 8.4.0., San Diego, CA).
# A-549 cancer cells = assay: MTT-based cell viability assay, A-549; conditions: Homo sapiens, A549, 72 h, read-out: A-549 cancer cell toxicity GI50 ± SEM
# Excerpt: (§3) MCT1-expressing cells have an extraordinary energy demand and rely on pyruvate metabolism, through either lactate conversion or pyruvate consumption. Inhibition of MCT1 blocks lactate and pyruvate influx into cancer cells, which prevents their processing in the TCA cycle. Over time, the viability of cells exposed to an MCT1 inhibitor is impaired due to pyruvate deprivation, which is compensated by upregulating glucose metabolism—leading to an overconsumption of glucose. To confirm the antiproliferative nature of the indole derivatives, we investigated the compounds toward the MCT1-expressing cell lines A-549[14],[15] and MCF-7.[16] Cancer cell viability was assessed via a 3-(4,5-dimethylthiazol-2-yl)-2,5-diphenyltetrazolium bromide (MTT) assay, as reported earlier.[43]
# (§4) To determine the growth inhibitory potential of compounds 17–32, […] of each compound either at concentrations between 1 and 100 μM (A-549 or MCF-7) or at 10 and 50 μM (NIH/3T3) was pipetted into colorless flat-bottom 96-well microplates. Thereafter, 180 μL of a cell suspension (5000 cells/well) of either A-549, MCF-7, or NIH/3T3 cells was added and subsequently kept for 72 h at 37 °C under a 5% CO2-humidified atmosphere. The cell viability as well as the GI50 values were determined as described above.[43]
# MCT1 = biological target: T1, MCT1 (Homo sapiens, UniProt P53985); assay: functional 3-BP cell viability assay (MCT1 transport inhibition); assay type: cell-based; conditions: MCT1-expressing A-549 cells, 50 μM 3-BP, 72 h; read-out: MCT1 transport inhibition IC50 ± SEM
# T1 construct: MCT1-expressing A-549 cells[14],[15] were exposed to the MCT1 substrate 3-BP, which becomes influxed by MCT1; endogenous in cells; host or cells: A-549 lung cancer cells (from NCCS, Pune)
# T1 sequence (P53985 1-500): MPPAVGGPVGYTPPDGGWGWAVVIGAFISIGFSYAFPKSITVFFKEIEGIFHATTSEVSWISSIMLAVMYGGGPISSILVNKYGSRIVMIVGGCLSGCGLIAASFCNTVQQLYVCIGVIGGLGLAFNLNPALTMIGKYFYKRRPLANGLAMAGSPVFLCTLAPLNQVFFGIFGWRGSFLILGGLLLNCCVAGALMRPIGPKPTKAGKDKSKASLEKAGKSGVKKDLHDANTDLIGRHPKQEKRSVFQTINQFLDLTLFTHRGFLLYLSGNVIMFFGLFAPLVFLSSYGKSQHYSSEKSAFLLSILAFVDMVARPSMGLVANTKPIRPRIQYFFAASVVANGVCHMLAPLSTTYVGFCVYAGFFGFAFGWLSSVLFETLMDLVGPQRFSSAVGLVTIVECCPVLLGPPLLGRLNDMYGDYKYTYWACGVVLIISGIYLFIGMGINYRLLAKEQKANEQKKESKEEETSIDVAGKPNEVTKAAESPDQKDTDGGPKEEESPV
# T1 sequence (P35613 140-385 partner limits assumed): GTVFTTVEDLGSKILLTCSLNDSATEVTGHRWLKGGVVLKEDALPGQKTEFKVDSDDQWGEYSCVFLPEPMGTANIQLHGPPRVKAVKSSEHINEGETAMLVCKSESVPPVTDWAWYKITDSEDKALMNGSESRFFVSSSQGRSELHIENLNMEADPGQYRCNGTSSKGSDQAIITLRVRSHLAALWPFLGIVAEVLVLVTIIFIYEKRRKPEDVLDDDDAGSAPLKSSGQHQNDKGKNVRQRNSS
# Procedure: as §1, §2
# ABCB1 = ABCB1 (Homo sapiens, UniProt P08183); assay: calcein AM assay, ABCB1-expressing A2780/ADR cells; conditions: screening at 10 μM, inhibitor if 20% (+SEM) reached
# Chain of ABCB1 (P08183 whole entry): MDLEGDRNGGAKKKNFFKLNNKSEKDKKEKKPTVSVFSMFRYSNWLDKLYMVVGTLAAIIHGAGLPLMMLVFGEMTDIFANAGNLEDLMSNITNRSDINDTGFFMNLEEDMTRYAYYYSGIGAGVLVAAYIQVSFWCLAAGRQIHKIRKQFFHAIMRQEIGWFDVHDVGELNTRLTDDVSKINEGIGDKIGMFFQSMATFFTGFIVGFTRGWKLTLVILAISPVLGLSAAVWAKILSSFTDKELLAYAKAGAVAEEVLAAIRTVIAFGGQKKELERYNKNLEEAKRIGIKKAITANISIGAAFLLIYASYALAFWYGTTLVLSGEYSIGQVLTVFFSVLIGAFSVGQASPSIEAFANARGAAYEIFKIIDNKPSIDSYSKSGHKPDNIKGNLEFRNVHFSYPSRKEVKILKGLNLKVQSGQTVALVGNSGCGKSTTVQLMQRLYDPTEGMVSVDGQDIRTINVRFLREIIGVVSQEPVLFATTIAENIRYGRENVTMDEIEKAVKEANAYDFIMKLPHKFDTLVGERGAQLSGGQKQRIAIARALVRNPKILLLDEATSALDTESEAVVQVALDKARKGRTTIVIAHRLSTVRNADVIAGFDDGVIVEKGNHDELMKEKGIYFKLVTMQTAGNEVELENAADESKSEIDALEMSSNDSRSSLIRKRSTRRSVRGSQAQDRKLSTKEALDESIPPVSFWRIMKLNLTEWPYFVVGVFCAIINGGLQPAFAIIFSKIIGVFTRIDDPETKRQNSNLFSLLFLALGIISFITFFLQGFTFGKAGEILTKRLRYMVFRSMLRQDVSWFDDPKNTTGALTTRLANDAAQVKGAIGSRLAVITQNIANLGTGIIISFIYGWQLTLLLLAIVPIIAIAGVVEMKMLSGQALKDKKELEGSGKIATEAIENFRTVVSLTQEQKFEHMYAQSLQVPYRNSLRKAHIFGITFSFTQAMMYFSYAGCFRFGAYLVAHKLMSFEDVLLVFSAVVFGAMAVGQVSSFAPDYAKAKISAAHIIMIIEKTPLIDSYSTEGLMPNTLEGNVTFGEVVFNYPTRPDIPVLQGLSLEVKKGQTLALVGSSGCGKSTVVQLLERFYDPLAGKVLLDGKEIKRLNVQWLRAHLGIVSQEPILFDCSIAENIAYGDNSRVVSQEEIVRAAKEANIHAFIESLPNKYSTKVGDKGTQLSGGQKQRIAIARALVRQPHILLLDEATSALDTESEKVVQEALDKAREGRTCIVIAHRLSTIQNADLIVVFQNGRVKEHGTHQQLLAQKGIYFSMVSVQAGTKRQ
# Excerpt: (§5) To provide a detailed picture of the pharmacological profile of the indole derivatives, we investigated their modulatory nature on the most prominent ABC transporters ABCB1 (P-glycoprotein, P-gp), ABCC1, (multidrug resistance-associated protein 1, MRP1), and ABCG2 (breast cancer resistance protein, BCRP). Here, we conducted calcein AM (ABCB1),[2],[52]−[59] daunorubicin (ABCC1),[52],[58]−[60] and pheophorbide A (ABCG2)[2],[52]−[60] assays using ABCB1-expressing A2780/ADR, ABCC1-expressing H69AR, and ABCG2-expressing MDCK II BCRP cells, respectively.
# (§6) The calcein AM (ABCB1),[2],[52]−[59] daunorubicin (ABCB1[52],[60] and ABCC1[52],[58]−[60]), and pheophorbide A (ABCG2)[2],[52]−[60] assays were conducted as reported earlier. […] The data was processed using GraphPad Prism version 8.4.0, and IC50 values were determined, applying three- or four-parameter logistic equations, whatever was statistically preferred.
# MCF-7 cancer cells = assay: MTT-based cell viability assay, MCF-7; conditions: Homo sapiens, MCF7, 72 h, read-out: MCF-7 cancer cell toxicity GI50 ± SEM
# Excerpt: as §3, §4
# ABCC1 = ABCC1 (Homo sapiens, UniProt P33527); assay: daunorubicin assay, ABCC1-expressing H69AR cells; conditions: screening at 10 μM, inhibitor if 20% (+SEM) reached
# Chain of ABCC1 (P33527 whole entry): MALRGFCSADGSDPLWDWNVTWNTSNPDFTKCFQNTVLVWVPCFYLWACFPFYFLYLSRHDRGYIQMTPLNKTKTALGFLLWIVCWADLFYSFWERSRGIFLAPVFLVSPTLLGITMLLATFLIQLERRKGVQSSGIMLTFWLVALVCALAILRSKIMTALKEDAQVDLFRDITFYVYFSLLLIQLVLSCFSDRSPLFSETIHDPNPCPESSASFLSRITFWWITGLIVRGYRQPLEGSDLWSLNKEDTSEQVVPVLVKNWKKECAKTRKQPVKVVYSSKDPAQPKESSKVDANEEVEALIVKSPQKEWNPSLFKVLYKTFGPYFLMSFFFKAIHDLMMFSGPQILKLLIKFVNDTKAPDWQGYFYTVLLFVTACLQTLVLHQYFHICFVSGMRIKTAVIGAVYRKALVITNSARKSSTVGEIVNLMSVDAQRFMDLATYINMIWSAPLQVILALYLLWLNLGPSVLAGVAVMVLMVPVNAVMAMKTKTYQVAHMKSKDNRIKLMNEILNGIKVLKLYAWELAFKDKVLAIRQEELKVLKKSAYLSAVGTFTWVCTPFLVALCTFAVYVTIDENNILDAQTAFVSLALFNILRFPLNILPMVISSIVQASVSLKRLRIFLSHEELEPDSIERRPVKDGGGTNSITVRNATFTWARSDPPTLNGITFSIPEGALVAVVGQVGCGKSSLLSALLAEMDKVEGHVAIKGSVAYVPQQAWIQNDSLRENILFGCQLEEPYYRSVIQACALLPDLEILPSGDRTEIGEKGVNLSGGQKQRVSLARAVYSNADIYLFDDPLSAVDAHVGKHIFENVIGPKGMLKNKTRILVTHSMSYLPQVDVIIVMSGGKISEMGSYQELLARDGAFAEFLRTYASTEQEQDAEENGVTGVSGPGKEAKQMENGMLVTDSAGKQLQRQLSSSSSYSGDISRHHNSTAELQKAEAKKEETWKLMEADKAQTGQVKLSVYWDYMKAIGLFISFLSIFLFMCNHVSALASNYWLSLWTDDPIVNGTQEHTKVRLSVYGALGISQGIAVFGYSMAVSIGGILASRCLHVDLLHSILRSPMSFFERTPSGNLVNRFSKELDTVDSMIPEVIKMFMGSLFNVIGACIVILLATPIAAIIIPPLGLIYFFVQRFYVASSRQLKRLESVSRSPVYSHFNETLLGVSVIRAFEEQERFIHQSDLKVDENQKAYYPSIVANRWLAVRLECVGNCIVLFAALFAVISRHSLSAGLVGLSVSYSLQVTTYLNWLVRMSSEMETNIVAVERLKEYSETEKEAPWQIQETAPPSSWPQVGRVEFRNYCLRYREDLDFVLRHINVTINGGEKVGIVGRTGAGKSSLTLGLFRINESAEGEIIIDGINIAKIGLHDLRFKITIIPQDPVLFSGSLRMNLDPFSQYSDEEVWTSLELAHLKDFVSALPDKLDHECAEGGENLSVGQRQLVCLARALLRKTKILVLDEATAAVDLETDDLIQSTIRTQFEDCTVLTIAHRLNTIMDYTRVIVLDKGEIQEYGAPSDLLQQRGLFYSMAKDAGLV
# Excerpt: as §5, §6
SMILES,GI90 of 3-BP (A-549 cells; A-549 cells) [µM],"GI50 (A-549 cells; Homo sapiens, A549, read-out: half-maximal growth inhibition (GI50) of 3-BP, A-549 cells) [µM]","inhibition at 50 µM (A-549 cells; Homo sapiens, A549, 50 μM 3-BP, read-out: inhibition of A-549 cell growth) [%]",GI50 (A-549 cancer cells) [µM],IC50 (MCT1) [µM],ABCB1 inhibition (ABCB1),GI50 (MCF-7 cancer cells) [µM],ABCC1 inhibition (ABCC1)
"O=C(O)C(=O)CBr [3-BP, 3-bromopyruvate]",49.8 ± 0.6,25 ± 0.4,≥ 90,,,,,
"COC(=O)/C(C#N)=C/c1cn(CC(=O)Nc2ccccc2)c2ccccc12 [Compound 17, Methyl-2-cyano-3-(1-(2-oxo-2-(phenylamino)ethyl)-1H-indol-3-yl) Acrylate]",,,,29.2 ± 0.2,0.314 ± 0.047,X (Compounds were considered as inhibitors if they reached 20% (+SEM) inhibition compared to the reference inhibitors 33–35; X = fulfilled),15.4 ± 0.3,
"COC(=O)/C(C#N)=C/c1cn(CC(=O)Nc2cccc3ccccc23)c2ccccc12 [Compound 18, Methyl-2-cyano-3-(1-(2-(naphthalen-1-ylamino)-2-oxoethyl)-1H-indol-3-yl) Acrylate]",,,,21.5 ± 0.4,0.193 ± 0.01,X (Compounds were considered as inhibitors if they reached 20% (+SEM) inhibition compared to the reference inhibitors 33–35; X = fulfilled),15.4 ± 0.5,
"COC(=O)/C(C#N)=C/c1cn(CC(=O)Nc2ccc3ccccc3c2)c2ccccc12 [Compound 19, Methyl-2-cyano-3-(1-(2-(naphthalen-2-ylamino)-2-oxoethyl)-1H-indol-3-yl) Acrylate]",,,,26.9 ± 0.3,0.109 ± 0.003,X (Compounds were considered as inhibitors if they reached 20% (+SEM) inhibition compared to the reference inhibitors 33–35; X = fulfilled),15.5 ± 1.3,
"COC(=O)/C(C#N)=C/c1cn(CC(=O)Nc2ccccc2C)c2ccccc12 [Compound 20, Methyl-2-cyano-3-(1-(2-oxo-2-(o-tolylamino)ethyl)-1H-indol-3-yl) Acrylate]",,,,28.3 ± 0.1,0.105 ± 0.006,X (Compounds were considered as inhibitors if they reached 20% (+SEM) inhibition compared to the reference inhibitors 33–35; X = fulfilled),15.3,X (Compounds were considered as inhibitors if they reached 20% (+SEM) inhibition compared to the reference inhibitors 33–35; X = fulfilled)
"COC(=O)/C(C#N)=C/c1cn(CC(=O)Nc2ccc(C)cc2)c2ccccc12 [Compound 21, Methyl-2-cyano-3-(1-(2-oxo-2-(p-tolylamino)ethyl)-1H-indol-3-yl) Acrylate]",,,,14 ± 0.5,0.112 ± 0.01,X (Compounds were considered as inhibitors if they reached 20% (+SEM) inhibition compared to the reference inhibitors 33–35; X = fulfilled),13.9 ± 0.1,X (Compounds were considered as inhibitors if they reached 20% (+SEM) inhibition compared to the reference inhibitors 33–35; X = fulfilled)
"COC(=O)/C(C#N)=C/c1cn(CC(=O)Nc2ccc(F)cc2)c2ccccc12 [Compound 25, Methyl-2-cyano-3-(1-(2-((4-fluorophenyl)amino)-2-oxoethyl)-1H-indol-3-yl) Acrylate]",,,,22 ± 0.6,0.793 ± 0.138,X (Compounds were considered as inhibitors if they reached 20% (+SEM) inhibition compared to the reference inhibitors 33–35; X = fulfilled),15.1 ± 0.3,X (Compounds were considered as inhibitors if they reached 20% (+SEM) inhibition compared to the reference inhibitors 33–35; X = fulfilled)
"COC(=O)/C(C#N)=C/c1cn(CC(=O)Nc2ccc(Cl)cc2)c2ccccc12 [Compound 26, Methyl-3-(1-(2-((4-chlorophenyl)amino)-2-oxoethyl)-1H-indol-3-yl)-2-cyanoacrylate]",,,,21 ± 0.4,0.196 ± 0.005,X (Compounds were considered as inhibitors if they reached 20% (+SEM) inhibition compared to the reference inhibitors 33–35; X = fulfilled),10.7 ± 0.4,X (Compounds were considered as inhibitors if they reached 20% (+SEM) inhibition compared to the reference inhibitors 33–35; X = fulfilled)
"COC(=O)/C(C#N)=C/c1cn(CC(=O)Nc2c(Cl)cccc2Cl)c2ccccc12 [Compound 27, Methyl-2-cyano-3-(1-(2-((2,6-dichlorophenyl)amino)-2-oxoethyl)-1H-indol-3-yl) Acrylate]",,,,25 ± 0.5,0.109 ± 0.002,X (Compounds were considered as inhibitors if they reached 20% (+SEM) inhibition compared to the reference inhibitors 33–35; X = fulfilled),17.3 ± 0.6,X (Compounds were considered as inhibitors if they reached 20% (+SEM) inhibition compared to the reference inhibitors 33–35; X = fulfilled)
"COC(=O)/C(C#N)=C/c1cn(CC(=O)Nc2ccc(Br)cc2)c2ccccc12 [Compound 28, Methyl-3-(1-(2-((4-bromophenyl)amino)-2-oxoethyl)-1H-indol-3-yl)-2-cyanoacrylate]",,,,19.2 ± 0.2,0.287 ± 0.047,X (Compounds were considered as inhibitors if they reached 20% (+SEM) inhibition compared to the reference inhibitors 33–35; X = fulfilled),9.99 ± 0.46,
"COC(=O)/C(C#N)=C/c1cn(CC(=O)Nc2ccccn2)c2ccccc12 [Compound 29, Methyl-2-cyano-3-(1-(2-oxo-2-(pyridin-2-ylamino)ethyl)-1H-indol-3-yl) Acrylate]",,,,17.1 ± 0.4,0.198 ± 0.004,,4.32 ± 0.14,
"COC(=O)/C(C#N)=C/c1cn(CC(=O)Nc2cccnc2)c2ccccc12 [Compound 32, Methyl-2-cyano-3-(1-(2-oxo-2-(pyridin-3-ylamino)ethyl)-1H-indol-3-yl) Acrylate]",,,,19.2 ± 0.4,0.109 ± 0.003,X (Compounds were considered as inhibitors if they reached 20% (+SEM) inhibition compared to the reference inhibitors 33–35; X = fulfilled),11.1 ± 0.2,X (Compounds were considered as inhibitors if they reached 20% (+SEM) inhibition compared to the reference inhibitors 33–35; X = fulfilled)
